Data on 1 molecule can be found in patent publication US20130065958A1, “METHODS FOR DISINFECTING OR STERILIZING ARTICLES” (priority 2011, published 2013).

This assay concerns Bacillus atrophaeus ATCC 9372 spores. The note with it: 3 drops, overnight (15 hours) at 35 C. The protocol: Before sealing, the inside surface of the bottle cap (liner removed) or its foam liner had been inoculated with a 10 μL droplet of Bacillus atrophaeus ATCC 9372 spores dried down onto the cap or liner surface. Bacillus atrophaeus ATCC 9372 spores are known to be of relatively high resistance to peroxide disinfection and are a recommended (for example, the U.S. Pharmacopeia) resistant organism for disinfection studies using chemicals (such as peroxide or ethylene oxide) or dry heat.

Where “and” joins values, the source holds several entries; their conditions need not be identical. Equal values may be shown once. Read-outs that look alike come from different tables or passages of the source.

For the molecule `OO` [3% hydrogen peroxide, hydrogen peroxide], where the note is “inoculated on cap”, the “CFU Recovered” value was 425000 CFU and 475000 CFU; the “Log Reduction” value was 1.2 and 1.1. Besides, where the note is “inoculated on liner”, the “CFU Recovered” value came out at 830000 CFU and the “Log Reduction” value is reported as 0.4.
